According to ChEMBL document CHEMBL5726443, “Bicyclic sulfonamide compounds as sodium channel inhibitors” (2017):

What follows are compounds tested against Sodium channel protein type 9 subunit alpha (Homo sapiens, UniProt Q15858) (assay: Compound effects were measured on a partially inactivated state of the sodium channel. Cells were clamped to a holding potential yielding 20 to 50% inactivation. To elicit sodium current, channels were activated by pulsing to ⿿10 mV for 20 msec. This voltage protocol was repeated at a rate of 0.1 Hz throughout the experiment.).
Sequence of Sodium channel protein type 9 subunit alpha (Q15858 whole entry): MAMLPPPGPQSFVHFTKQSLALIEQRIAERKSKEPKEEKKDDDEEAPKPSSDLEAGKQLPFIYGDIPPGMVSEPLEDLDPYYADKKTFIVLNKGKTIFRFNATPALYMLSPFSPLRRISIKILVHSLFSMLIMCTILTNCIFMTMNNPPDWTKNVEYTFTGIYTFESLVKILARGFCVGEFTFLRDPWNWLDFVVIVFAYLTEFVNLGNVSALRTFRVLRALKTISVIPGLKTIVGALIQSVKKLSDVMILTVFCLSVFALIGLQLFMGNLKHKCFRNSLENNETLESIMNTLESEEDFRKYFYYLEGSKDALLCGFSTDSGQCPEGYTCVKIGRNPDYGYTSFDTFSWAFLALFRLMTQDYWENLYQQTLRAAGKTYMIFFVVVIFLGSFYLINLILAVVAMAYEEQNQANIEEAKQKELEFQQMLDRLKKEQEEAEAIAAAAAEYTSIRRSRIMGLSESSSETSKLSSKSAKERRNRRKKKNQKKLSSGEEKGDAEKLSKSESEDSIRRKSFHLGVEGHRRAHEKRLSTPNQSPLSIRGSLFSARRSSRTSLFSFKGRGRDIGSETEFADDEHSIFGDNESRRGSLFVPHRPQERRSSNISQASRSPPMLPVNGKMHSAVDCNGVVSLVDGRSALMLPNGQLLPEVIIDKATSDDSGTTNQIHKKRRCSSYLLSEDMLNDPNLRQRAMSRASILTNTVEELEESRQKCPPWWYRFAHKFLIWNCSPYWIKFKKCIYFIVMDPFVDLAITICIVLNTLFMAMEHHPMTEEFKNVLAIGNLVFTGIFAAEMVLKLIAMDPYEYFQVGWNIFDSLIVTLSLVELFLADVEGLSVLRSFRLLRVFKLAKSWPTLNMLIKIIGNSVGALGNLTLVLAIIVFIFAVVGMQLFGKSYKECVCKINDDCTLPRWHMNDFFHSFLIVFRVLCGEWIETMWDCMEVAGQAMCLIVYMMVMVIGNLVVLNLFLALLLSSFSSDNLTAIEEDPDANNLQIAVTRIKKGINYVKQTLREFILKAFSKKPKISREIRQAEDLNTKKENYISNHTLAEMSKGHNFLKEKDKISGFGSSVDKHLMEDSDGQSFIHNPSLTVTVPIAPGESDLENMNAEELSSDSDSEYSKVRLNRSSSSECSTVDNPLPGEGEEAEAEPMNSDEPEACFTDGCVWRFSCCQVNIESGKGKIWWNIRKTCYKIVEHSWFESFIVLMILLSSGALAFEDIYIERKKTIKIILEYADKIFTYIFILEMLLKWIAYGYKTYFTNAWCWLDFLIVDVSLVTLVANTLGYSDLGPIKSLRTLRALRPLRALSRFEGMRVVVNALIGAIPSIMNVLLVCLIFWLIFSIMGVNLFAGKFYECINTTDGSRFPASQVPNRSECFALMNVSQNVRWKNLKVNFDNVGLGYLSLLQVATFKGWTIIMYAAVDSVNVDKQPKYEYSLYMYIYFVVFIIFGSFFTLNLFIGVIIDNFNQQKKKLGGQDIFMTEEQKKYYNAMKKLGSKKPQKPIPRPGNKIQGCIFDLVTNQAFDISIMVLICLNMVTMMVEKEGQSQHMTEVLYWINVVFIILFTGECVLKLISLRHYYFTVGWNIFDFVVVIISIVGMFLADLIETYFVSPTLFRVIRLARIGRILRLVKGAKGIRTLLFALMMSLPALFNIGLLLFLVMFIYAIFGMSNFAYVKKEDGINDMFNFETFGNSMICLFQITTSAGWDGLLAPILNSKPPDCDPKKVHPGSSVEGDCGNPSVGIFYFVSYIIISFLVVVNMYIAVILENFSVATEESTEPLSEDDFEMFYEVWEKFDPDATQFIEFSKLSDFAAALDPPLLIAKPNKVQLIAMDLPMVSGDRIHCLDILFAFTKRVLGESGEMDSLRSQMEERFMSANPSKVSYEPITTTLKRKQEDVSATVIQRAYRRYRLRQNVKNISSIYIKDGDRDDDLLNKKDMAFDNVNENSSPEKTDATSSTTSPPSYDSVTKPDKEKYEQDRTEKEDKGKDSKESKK

| Structure (SMILES) | IC50 [nM] |
| --- | --- |
| COc1cc(-c2ccc(Cl)c(F)c2)c(C#N)cc1-c1nccc2cc(S(=O)(=O)Nc3nncs3)ccc12 | 18.6 |
| COc1cc(-c2ccc(F)c(C)n2)c(C)cc1-c1ncnc2cc(S(=O)(=O)Nc3ccon3)ccc12 | 445 |
| COc1cc(-c2ccc(F)c(Cl)c2)c(C#N)cc1-c1nccc2cc(S(=O)(=O)Nc3nncs3)ccc12 | 9.2 |
| COc1cc(-c2cccc(Cl)c2)c(F)cc1-c1ncnc2cc(S(=O)(=O)Nc3ncc(F)cn3)ccc12 | 107 |
| COc1cc(-c2cccc(C(F)(F)F)c2)c(C)cc1-c1nccc2cc(S(=O)(=O)Nc3ccon3)ccc12 | 60.9 |
